Data: article PMC7764665, “Food (Matrix) Effects on Bioaccessibility and Intestinal Permeability of Major Olive Antioxidants” (Foods, 2020)
Converted amounts (≈) assume the structure as drawn. “And” between values parts separate entries of the source, which are not always exact repeats. Equal entries are not always repeated.

How the values were obtained:
[1] = design: method as in PMID 11435519; details: rat model, lipid-rich matrix (olive oil); cited from earlier work
[2] = source not given; cited from earlier work
[3] = tested on: Caco-2 cell monolayer; test: Transepithelial transport of HTS and TS in Caco-2 monolayers; details: 2 h, compared to MIX; for transepithelial permeability in presence of glucose: 40 µg/mL HTS and TS with 10 mM glucose; for transepithelial permeability in presence of cellulose: 40 µg/mL HTS and TS with 1% cellulose
[4] = Standardized static in vitro simulation of gastrointestinal digestion of OPE (bioaccessibility), alone or co-digested with food; format: in vitro ADME; details: fed vs fasted state biorelevant media (FeSSGF/FeSSIF vs FaSSGF/FaSSIF)
[5] = as above; format: in vitro ADME; details: for bioaccessible amount after gastrointestinal digestion / amount in OPE before gastrointestinal digestion: OPE; for bioaccessible amount after gastrointestinal digestion: after simulated gastrointestinal digestion; for amount in OPE before gastrointestinal digestion: before digestion (start of the printed increase); for effect of standardized food model (SFM) on bioaccessibility: digestion with SFM compared to other applied methods
Protocol: Total polyphenols (total reductive capacity) of analyzed samples was assessed by Folin–Ciocalteu method that relies on the transfer of electrons in alkaline medium from phenolic (or other reductive) compounds to phosphomolybdic/phosphotungstic acid complexes, which are determined spectroscopically at 765 nm. Experiments were conducted according to the protocol described by Ainsworth and co-workers. Moreover, 20 µL of adequately diluted sample/standard/solvent (blank) were added in triplicate to 96-well plate (Thermo Fisher Scientific 130188, Rochester, NY, USA) and incubated at 37 °C with 50 µL of Folin Ciocalteu reagent (10% (v/v)) for 5 min. The 160 µL of Na2CO3 (700 mM) was added into each well, shaken, and incubated at 37 °C for 30 min. Absorbance was read at 765 nm and results were expressed as gallic acid equivalents (GAE). HTS and TS were identified and quantified by HPLC system (Waters Alliance 2695, Milford, MA, USA) coupled with a 2475 Multi λ detector (FLD) with Xenon lamp, according to slightly modified method of Tsarbopoulos and co-workers. Samples were prepared by filtration through 0.45 μm polyethersulfone (PES) syringe filters (Macherey–Nagel, Düren, Germany). Chromatographic separation was conducted by injecting 20 μL of sample on a reversed phase column (250 × 4.6 mm, 5 μm) (Agilent Zorbax Eclipse Plus C18, Santa Clara, CA, USA). Mobile phases were 0.05 M sodium acetate buffer pH 5 and acetonitrile with the flow rate of 1 mL/min. Elution was conducted over 25 min at 25 °C. Identification was performed with FLD set at the excitation wavelength of 280 nm, and emission wavelength of 316 nm. Polyphenols were identified by comparing the retention times of the eluting peaks with those of the standards. Peaks were quantified by using the Empower2 software (Waters, Milford, MA, USA) and compared to external standard calibration. Standard stock solutions were prepared by dissolving reference compounds in DMSO. In vitro simulation of gastrointestinal digestion and the assessment of bioaccessibility of hydroxytyrosol and tyrosol from OPE was conducted by standardized static in vitro digestion method suitable for food. Three-phase digestion process was applied consisting of short salivary phase, simulation of gastric digestion and simulation of duodenal digestion. Briefly, 200 mg of OPE was used alone or mixed with 600 mg of food matrix (Table S4) in 50 mL Falcon tube. The 875 µL of SSF, 125 µL of salivary α amylase solution, 6.25 µL of CaCl2 (0.3 mol/L), and 243.8 µL of water was added, and the mixture incubated at 37 °C for 2 min with constant shaking. The 2.5 mL of reaction mixture were transferred to another Falcon tube and mixed with 1.875 mL of SGF, 1.25 µL of CaCl2 (0.3 mol/L), and 50 µL of HCl (1 mol/L). The pH of the mixture was adjusted to 3, and total volume was adjusted to 5 mL with water. The content of the Falcon tube was vortexed and incubated for 2 h at 37 °C with constant shaking. Every 15 min pH of the mixture was checked and adjusted to 3 if necessary. At the end of simulation of the gastric digestion step, 5 mL of aliquot were transferred to another 50 mL Falcon tube for the simulation of intestinal digestion. The 2.75 mL of SIF, 1.25 mL of pancreatin solution, 0.625 mL of bile salt (160 mmol/L), 10 µL of CaCl2 (0.3 mol/L), and 37.5 µL of NaOH (1 mol/L) were added. The pH was checked and adjusted to 7. Total volume of reaction mixture was adjusted to […], mixtures were vortexed and incubated for 2 h at 37 °C with constant shaking. Every 15 min, pH of the mixture was checked and adjusted to 7 if necessary. After digestion, simulation samples were cooled at −20 °C for 10 min and centrifuged (Heraeus Biofuge Stratos, Hanau, Germany) for 20 min at 4 °C and 4100 rpm. For HPLC analysis of hydroxytyrosol and tyrosol, obtained supernatants were additionally filtered through 0.45 µm polyether sulfone (PES) syringe filters. […]

[6] = design: method as in PMID 18209271; details: after virgin olive oil ingestion; cited from earlier work
[7] = tested on: Caco-2 Cells; design: method as in PMID 29663812; details: co-digestion with the test meal; cited from earlier work
[8] = design: method as in PMID 29663812; details: co-digestion with the test meal; cited from earlier work
[9] = OPE co-digested with apple (peeled, no skin), relative to OPE without food
[10] = OPE co-digested with banana, relative to OPE without food
[11] = OPE co-digested with breakfast cereals, relative to OPE without food
[12] = OPE co-digested with canned tuna, relative to OPE without food
[13] = OPE co-digested with cellulose, relative to OPE without food
[14] = OPE co-digested with corn starch, relative to OPE without food
[15] = OPE co-digested with fresh low fat cheese, relative to OPE without food
[16] = OPE co-digested with honey, relative to OPE without food
[17] = OPE co-digested with milk formula, relative to OPE without food
[18] = OPE co-digested with milk, relative to OPE without food
[19] = OPE co-digested with potato (boiled), relative to OPE without food
[20] = OPE co-digested with silverbeat (blanched), relative to OPE without food
[21] = OPE co-digested with souce bolognese, relative to OPE without food
[22] = OPE co-digested with sour cream, relative to OPE without food
[23] = OPE co-digested with soy flakes, relative to OPE without food
[24] = OPE co-digested with whole-grain bread, relative to OPE without food
[25] = OPE co-digested with yoghurt, relative to OPE without food
[26] = OPE digested without food (reference)

For `OCCc1ccc(O)c(O)c1` [HTS, 3-hydroxytyrosol], the “greater absorption from olive oil compared to aqueous solution” value [1] is listed as 25%, the water solubility [2] is listed as 17.4 mg/mL (≈ 113 mM) and the “transepithelial permeability in presence of glucose” value [3] is listed as “significantly improved”. For the same molecule, the “transepithelial permeability in presence of cellulose” value [3] was “did not result in increased permeability”, the “transepithelial permeability in presence of inulin” value ([3]; 40 µg/mL HTS and TS with 1% inulin) was “significant reduction” and the “influence of food-induced changes of pH and digestion fluid composition on bioaccessibility” value [4] was “do not influence”. The relative bioaccessibility [5, 9] was 54.8 ± 0.72%, the relative bioaccessibility [5, 10] was 65.8 ± 5.05% and the relative bioaccessibility [5, 11] was 76.0 ± 2.30%. The relative bioaccessibility [5, 12] was 98.3 ± 4.92%, the relative bioaccessibility [5, 13] was 108.2 ± 2.24% and the relative bioaccessibility [5, 14] was 94.9% and 94.9 ± 2.19%. For the same molecule, the relative bioaccessibility [5, 15] was 95.5 ± 8.16%, the relative bioaccessibility [5, 16] was 89.5% and 89.5 ± 7.26% and the relative bioaccessibility [5, 17] was 95.9 ± 0.96%. The relative bioaccessibility [5, 18] was 98.6 ± 3.11%, the relative bioaccessibility ([5]; OPE co-digested with pectin, relative to OPE without food) was 93.2% and 93.2 ± 3.04% and the relative bioaccessibility [5, 19] was 92.8 ± 5.88%. The relative bioaccessibility [5, 20] was 69.3 ± 0.79%, the relative bioaccessibility [5, 21] was 84.2 ± 4.61% and the relative bioaccessibility [5, 22] was 102.3 ± 2.18%. It also gave a relative bioaccessibility [5, 23] of 69.8 ± 1.06%, a relative bioaccessibility [5, 24] of 57.4 ± 0.97% and a relative bioaccessibility [5, 25] of 92.5 ± 0.82%. For the same molecule, the relative bioaccessibility [5, 26] was 100.0 ± 2.86%, the “bioaccessible amount after gastrointestinal digestion” value [5] was 109.3 mg/100g and the “amount in OPE before gastrointestinal digestion” value [5] was 78.4 mg/100g. For the same molecule, the “effect of standardized food model (SFM) on bioaccessibility” value [5] was “no effect”, the “time of peak concentration in plasma” value [6] was “around 1 h” and the “time of peak in urine” value [6] was 0 to 2 h. For the same molecule, the “change of intestinal permeability by presence of foods” value [7] was −10% and the “change of bioaccessibility by presence of foods” value [8] was −20%.
In the case of `OCCc1ccc(O)cc1` [TS, tyrosol], the “greater absorption from olive oil compared to aqueous solution” value [1] is given as 25%, the water solubility [2] is given as 25.3 mg/mL (≈ 183 mM) and the “transepithelial permeability in presence of glucose” value [3] is given as “significantly improved”. The “transepithelial permeability in presence of cellulose” value [3] was “did not result in increased permeability”, the “influence of food-induced changes of pH and digestion fluid composition on bioaccessibility” value [4] was “do not influence” and the relative bioaccessibility [5, 9] was 67.2 ± 0.55%. The relative bioaccessibility [5, 10] was 104.5 ± 2.15%, the relative bioaccessibility [5, 11] was 79.3 ± 8.70% and the relative bioaccessibility [5, 12] was 98.5 ± 1.12%. For the same molecule, the relative bioaccessibility [5, 13] was 87.4%, the relative bioaccessibility [5, 14] was 88.7% and 88.1 ± 1.66% and the relative bioaccessibility [5, 15] was 106.4 ± 4.35%. For the same molecule, the relative bioaccessibility [5, 16] was 97.8% and 97.8 ± 0.91%, the relative bioaccessibility [5, 17] was 81.3 ± 3.95% and the relative bioaccessibility [5, 18] was 94.6 ± 1.63%. The relative bioaccessibility [5, 19] was 92.4 ± 1.64%, the relative bioaccessibility [5, 20] was 89.9 ± 4.59% and the relative bioaccessibility [5, 21] was 92.4 ± 0.46%. It also gave a relative bioaccessibility [5, 22] of 97.4 ± 3.34%, a relative bioaccessibility [5, 23] of 93.0 ± 1.93% and a relative bioaccessibility [5, 24] of 73.0 ± 0.66%. The relative bioaccessibility [5, 25] was 73.8 ± 1.42%, the relative bioaccessibility [5, 26] was 99.9 ± 6.75% and the “bioaccessible amount after gastrointestinal digestion” value [5] was 27.4 mg/100g. For the same molecule, the “amount in OPE before gastrointestinal digestion” value [5] was 20.7 mg/100g, the “effect of standardized food model (SFM) on bioaccessibility” value [5] was “no effect” and the “time of peak concentration in plasma” value [6] was “around 1 h”. The “time of peak in urine” value [6] was 0 to 2 h.
